This note sets out measurements from US10106501B2, “Nuclear receptor modulators” (AbbVie Inc., priority 2015, dated 2018).

In the experiment the target is T1, chimeric human RORγ-Gal4 receptor (Homo sapiens, UniProt P51449).
T1 sequence (P51449 269-508 limits assumed): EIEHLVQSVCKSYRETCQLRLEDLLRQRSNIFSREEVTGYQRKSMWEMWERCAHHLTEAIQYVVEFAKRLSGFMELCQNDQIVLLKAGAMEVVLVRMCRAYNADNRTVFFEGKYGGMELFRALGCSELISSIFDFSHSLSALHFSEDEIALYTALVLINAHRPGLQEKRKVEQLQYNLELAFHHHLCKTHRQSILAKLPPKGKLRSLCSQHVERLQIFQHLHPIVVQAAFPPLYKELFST
The experiment in a line: transient transactivation assay (RORγ-Gal4 luciferase reporter). The format is cell-based. As to conditions: Cos-7 cells transfected with RORγ-Gal4 and 5Gal4 pGL3 TK Luc reporter; overnight incubation; T0901317 at 10^-5 M as reference; read-out: IC50. (In general: In a reporter assay the amount or activity of a reporter protein is the signal.)

As to `Cc1cc(C(F)(F)F)cc2c1nc(Cc1c(Cl)ccc(CN3CCC(C(C)(C)CO)CC3)c1Cl)n2C` [BW-6], the IC50 lay in the range of 100 to 500 nM. Consider `Cc1cc(C(F)(F)F)cc2c1nc(Cc1c(Cl)ccc(CN3CCC(C(C)(C)O)CC3)c1Cl)n2C` [BW-7], for which the IC50 is 100 to 500 nM.

In the case of `Cc1cc(C(F)(F)F)cc2c1nc(Cc1c(Cl)ccc(CN3CCC4(CCOC4)CC3)c1Cl)n2C` [BW-8], the IC50 fell in the range of 100 to 500 nM. Regarding `COCCN1CCN(Cc2ccc(Cl)c(Cc3nc4c(C)cc(C(F)(F)F)cc4n3C)c2Cl)CC1` [BW-9], the IC50 was in the range of 100 to 500 nM. Turning to `Cc1cc(C(F)(F)F)cc2c1nc(Cc1c(Cl)ccc(CN3CCOCC3)c1Cl)n2C` [BW-10], the IC50 lay within 100 to 500 nM. With `Cc1cc(C(F)(F)F)cc2c1nc(Cc1c(Cl)ccc(CN3CCC(CCO)CC3)c1Cl)n2C` [BW-11], the IC50 fell in the range of 100 to 500 nM.

As for `Cc1cc(C(F)(F)F)cc2c1nc(Cc1c(Cl)ccc(CN3CCC(CC(C)(C)O)CC3)c1Cl)n2C` [BW-12], the IC50 was 500 to 1000 nM. `Cc1cc(C(F)(F)F)cc2c1nc(Cc1c(Cl)ccc(CN3CCC(C(C)O)CC3)c1Cl)n2C` (centres unmarked) [BW-13]: the IC50 fell in the range of 100 to 500 nM. Turning to `Cc1cc(C(F)(F)F)cc2c1nc(Cc1c(Cl)ccc(CN3CCC(CO)CC3)c1Cl)n2C` [BW-14], the IC50 lay within 100 to 500 nM. As for `Cc1cc(C(F)(F)F)cc2c1nc(Cc1c(Cl)ccc(CN3CCN(CC(F)(F)F)CC3)c1Cl)n2C` [BW-15], the IC50 lay within 100 to 500 nM.

Regarding `Cc1cc(C(F)(F)F)cc2c1nc(Cc1c(Cl)ccc(CN3CCC(N(C)C)CC3)c1Cl)n2C` [BW-16], the IC50 lay within 1000 to 10000 nM.

Regarding `Cc1cc(C(F)(F)F)cc2c1nc(Cc1c(Cl)ccc(CN3CCCC(C)(O)C3)c1Cl)n2C` (centres unmarked) [BW-17], the IC50 lay within 100 to 500 nM. The result for `CCN(CCO)Cc1ccc(Cl)c(Cc2nc3c(C)cc(C(F)(F)F)cc3n2C)c1Cl` [BW-18] reads 500 to 1000 nM; that for `Cn1c(Cc2c(Cl)ccc(C(=O)N3CCOCC3)c2Cl)nc2c(C(F)(F)F)cc(Br)cc21` [CE, (3-((6-bromo-1-methyl-4-(trifluoromethyl)-1H-benzo[d]imidazol-2-yl)methyl)-2,4-dichlorophenyl)(morpholino)methanone], 100 to 500 nM; that for `Cn1c(Cc2c(Cl)ccc(C(=O)N3CCOCC3)c2Cl)nc2c(C(F)(F)F)cc(C#N)cc21` [CF, 2-(2,6-dichloro-3-(morpholine-4-carbonyl)benzyl)-1-methyl-4-(trifluoromethyl)-1H-benzo[d]imidazole-6-carbonitrile], 500 to 1000 nM. As to `CCn1c(Cc2c(Cl)ccc(C(=O)N3CCOCC3)c2Cl)nc2c(C)cc(C#N)cc21` [CG, 2-(2,6-dichloro-3-(morpholine-4-carbonyl)benzyl)-1-ethyl-4-methyl-1H-benzo[d]imidazole-6-carbonitrile], the IC50 was 500 to 1000 nM. Consider `Cc1cc(C#N)cc2c1nc(Cc1c(Cl)ccc(C(=O)N3CCOCC3)c1Cl)n2C(C)C` [CH, 2-(2,6-dichloro-3-(morpholine-4-carbonyl)benzyl)-1-isopropyl-4-methyl-1H-benzo[d]imidazole-6-carbonitrile], for which the IC50 is below 100 nM.

Turning to `Cc1cc(C#N)nc2c1nc(Cc1c(Cl)ccc(C(=O)N3CCOCC3)c1Cl)n2C` [CI, 2-(2,6-dichloro-3-(morpholine-4-carbonyl)benzyl)-3,7-dimethyl-3H-imidazo[4,5-b]pyridine-5-carbonitrile], the IC50 lay in the range of 1000 to 10000 nM. Consider `Cn1c(Cc2c(Cl)ccc(C(=O)N3CCOCC3)c2Cl)cc2c(Cl)cc(C#N)cc21` [CJ, 4-chloro-2-(2,6-dichloro-3-(morpholine-4-carbonyl)benzyl)-1-methyl-1H-indole-6-carbonitrile], for which the IC50 lay within 1000 to 10000 nM. Consider `Cn1c(Cc2c(Cl)ccc(C(=O)N3CCOCC3)c2Cl)cc2cccnc21` [CK, (2,4-dichloro-3-((1-methyl-1H-pyrrolo[2,3-b]pyridin-2-yl)methyl)phenyl)(morpholino)methanone], for which the IC50 lay within 1000 to 10000 nM.

Consider `Cc1cc(C#N)nc2c1cc(Cc1c(Cl)ccc(C(=O)N3CCC(O)CC3)c1Cl)n2C` [CL-1], for which the IC50 was below 100 nM. Consider `Cc1cc(C#N)nc2c1cc(Cc1c(Cl)ccc(C(=O)N3CCC(C4COC4)CC3)c1Cl)n2C` [CL-2], for which the IC50 is below 100 nM. As for `Cc1cc(Cl)nc2c1cc(Cc1c(Cl)ccc(C(=O)N3CCOCC3)c1Cl)n2C` [CM1, (2,4-dichloro-3-((6-chloro-1,4-dimethyl-1H-pyrrolo[2,3-b]pyridin-2-yl)methyl)phenyl)(morpholino)methanone], the IC50 is below 100 nM. The result for `Cc1cc(C(F)(F)F)nc2c1cc(Cc1c(Cl)ccc(C(=O)N3CCOCC3)c1Cl)n2C` [CM, (2,4-dichloro-3-((1,4-dimethyl-6-(trifluoromethyl)-1H-pyrrolo[2,3-b]pyridin-2-yl)methyl)phenyl)(morpholino)methanone] reads below 100 nM; that for `Cn1c(C(=O)c2c(Cl)ccc(C(=O)N3CCOCC3)c2Cl)cc2ncc(C(F)(F)F)cc21` [CP, (2,4-dichloro-3-(1-methyl-6-(trifluoromethyl)-1H-pyrrolo[3,2-b]pyridine-2-carbonyl)phenyl)(morpholino)methanone], 1000 to 10000 nM; that for `Cc1cc(C(F)(F)F)cn2c(C)c(Cc3c(Cl)ccc(C(=O)N4CCC(CCO)CC4)c3Cl)nc12` [CT-2], 100 to 500 nM. Regarding `Cc1cc(C(F)(F)F)cn2c(C)c(Cc3c(Cl)ccc(C(=O)N4CCC(C(C)(C)O)CC4)c3Cl)nc12` [CT-3], the half-inhibitory concentration (IC50) is below 100 nM. `Cc1cc(C(F)(F)F)cn2c(C)c(Cc3c(Cl)ccc(C(=O)N4CCC(O)C4)c3Cl)nc12` (centres unmarked) [CT-4]: the IC50 was above 10000 nM. With `Cc1cc(C(F)(F)F)cn2c(C)c(Cc3c(Cl)ccc(C(=O)N4CCC(N(C)C)CC4)c3Cl)nc12` [CT-5], the IC50 was in the range of 500 to 1000 nM. Then `COC1CCN(C(=O)c2ccc(Cl)c(Cc3nc4c(C)cc(C(F)(F)F)cn4c3C)c2Cl)CC1` [CT-6], with below 100 nM; and `COCCC1CCN(C(=O)c2ccc(Cl)c(Cc3nc4c(C)cc(C(F)(F)F)cn4c3C)c2Cl)CC1` [CT-7], with below 100 nM; and `Cc1cc(C(F)(F)F)cn2c(C)c(Cc3c(Cl)ccc(C(=O)N4CCC(C5COC5)CC4)c3Cl)nc12` [CT-8], with below 100 nM. With `Cc1cc(C(F)(F)F)cn2c(C)c(Cc3c(Cl)ccc(C(=O)N4CCN(C5COC5)CC4)c3Cl)nc12` [CT-9], the IC50 was 100 to 500 nM. The result for `Cc1cc(C(F)(F)F)cn2c(C)c(Cc3c(Cl)ccc(C(=O)N4CCC(C(C)O)CC4)c3Cl)nc12` (centres unmarked) [CT-11] reads 100 to 500 nM; that for `Cc1cc(C#N)cn2c(C)c(Cc3c(Cl)ccc(C(=O)N4CCC(C5COC5)CC4)c3Cl)nc12` [CV-5], 100 to 500 nM. Turning to `Cc1cc(C(F)(F)F)nn2c(C)c(Cc3c(Cl)ccc(C(=O)N4CCOCC4)c3Cl)nc12` [CZ, (2,4-dichloro-3-((3,8-dimethyl-6-(trifluoromethyl)imidazo[1,2-b]pyridazin-2-yl)methyl)phenyl)(morpholino)methanone], the IC50 was below 100 nM.

For `Cc1cc(C(F)(F)F)nn2c(C)c(C(=O)c3c(Cl)ccc(C(=O)N4CCC(CC(=O)O)CC4)c3Cl)nc12` [CZ-1A, 2-(1-(2,4-dichloro-3-(3,8-dimethyl-6-(trifluoromethyl)imidazo[1,2-b]pyridazine-2-carbonyl)benzoyl)piperidin-4-yl)acetic acid], the IC50 lay in the range of 100 to 500 nM. Regarding `Cc1cc(C(F)(F)F)nn2c(C)c(Cc3c(Cl)ccc(C(=O)N4CCN(C5COC5)CC4)c3Cl)nc12` [CZ-1], the IC50 lay within 100 to 500 nM. As to `Cc1cc(C(F)(F)F)nn2c(C)c(Cc3c(Cl)ccc(C(=O)N4CCC(C5COC5)CC4)c3Cl)nc12` [CZ-2], the IC50 was below 100 nM. Turning to `Cc1cc(C(F)(F)F)nn2c(C)c(Cc3c(Cl)ccc(C(=O)N4CCN(S(C)(=O)=O)[C@H](C)C4)c3Cl)nc12` [CZ-3], the IC50 lay in the range of 100 to 500 nM. Then `Cc1cc(C(F)(F)F)cc2c1cc(Cc1c(Cl)ccc(C(=O)N3CCOCC3)c1Cl)n2C` [D, (2,4-dichloro-3-((1,4-dimethyl-6-(trifluoromethyl)-1H-indol-2-yl)methyl)phenyl)(morpholino)methanone], with below 100 nM. Then `Cc1cc(C#N)nn2c(C)c(Cc3c(Cl)ccc(C(=O)N4CCOCC4)c3Cl)nc12` [DA, 2-(2,6-dichloro-3-(morpholine-4-carbonyl)benzyl)-3,8-dimethylimidazo[1,2-b]pyridazine-6-carbonitrile], with 1000 to 10000 nM; and `Cc1cc2nc(Cc3c(Cl)ccc(C(=O)N4CCOCC4)c3Cl)c(C)n2nc1C#N` [DB, 2-(2,6-dichloro-3-(morpholine-4-carbonyl)benzyl)-3,7-dimethylimidazo[1,2-b]pyridazine-6-carbonitrile], with 1000 to 10000 nM; and `Cc1cc(C(F)(F)F)nc2c1nc(Cc1c(Cl)ccc(C(=O)N3CCOCC3)c1Cl)n2C` [DC, (2,4-dichloro-3-((3,7-dimethyl-5-(trifluoromethyl)-3H-imidazo[4,5-b]pyridin-2-yl)methyl)phenyl)(morpholino)methanone], with 1000 to 10000 nM. With `Cc1nn(Cc2c(Cl)ccc(C(=O)N3CCC(C4COC4)CC3)c2Cl)c2c(C)cc(C(F)(F)F)cc12` [DD-1, (2,4-dichloro-3-((3,7-dimethyl-5-(trifluoromethyl)-1H-indazol-1-yl)methyl)phenyl)(4-(oxetan-3-yl)piperidin-1-yl)methanone], the IC50 was below 100 nM. Consider `Cc1nn(Cc2c(Cl)ccc(C(=O)N3CCC(CC(=O)O)CC3)c2Cl)c2c(C)cc(C(F)(F)F)cc12` [DE, 2-(1-(2,4-dichloro-3-((3,7-dimethyl-5-(trifluoromethyl)-1H-indazol-1-yl)methyl)benzoyl)piperidin-4-yl)acetic acid], for which the IC50 is below 100 nM. Regarding `Cc1cc(C(F)(F)F)cc2c(C)n(Cc3c(Cl)ccc(C(=O)N4CCC(CC(=O)O)CC4)c3Cl)nc12` [DG, 2-(1-(2,4-dichloro-3-((3,7-dimethyl-5-(trifluoromethyl)-2H-indazol-2-yl)methyl)benzoyl)piperidin-4-yl)acetic acid], the IC50 is below 100 nM.

The IC50 is the concentration that gives 50% inhibition.
